Here are results for three compounds from patent US7045339B2, “Electron donors for chlorinated solvent source area bioremediation” (SRP Technologies, Inc., priority 2002, dated 2006).

A value given as a limit tells only on which side of the number the result lay.

Common to all, as to type: physicochemical
Series [1] is described as follows: Surface tension of electron donor solutions (pendant drop method). The following applies: FIG. 5; for Change in surface tension: 0% ethyl lactate. The source says: Based on the field results presented in Example 1, laboratory studies were preformed to confirm that the enhanced bioavailability of TCE observed in the field was due to co-solvent or surfactant behavior resulting from the use of high concentrations of sodium lactate. Two fundamental properties used to screen the co-solvent or surfactant properties of a solution are surface tension and interfacial tension. Surface tension measures the force per unit length along the interface between a liquid and air due to its tension. When a co-solvent or surfactant is present in an aqueous liquid at increasing concentrations, the surface tension of that liquid decreases. Interfacial tension is similar to surface tension except that it measures the force per unit length along the interface between two liquid phases arising from the surface free energy. The higher the interfacial tension between two liquids, the less likely one is to dissolve into the other, and the more difficult it is for one to be transported within the other. […]
The laboratory study performed to confirm the co-solvent properties of the high concentration electron donor solution measured the surface tension of electron donor solutions at various concentrations. Next, interfacial tensions between the same electron donor solutions and nonaqueous phase TCE were measured. […] Surface and interfacial tension measurements were made using the pendant drop method (M. J. Rosen, ed., Structure/Performance Relationships in Surfactants, American Chemical Society, Washington D.C. 329 (1984); R. D. Bagnall & P. A. Arundel, The Profile Area of Pendant Drops, 82 J. Phys. Chem. 898 (1978)) coupled with real-time video imaging (M. D. Herd et al., Interfacial Tensions of Microbial Surfactants Determined by Real-Time Video Imaging of Pendant Drops, Proceedings paper number SPE/DOE 24206 513–519, SPE/DOE Eighth Symposium on Enhanced Oil Recovery, Tulsa, Okla. (1992)).

A short description of series [2]: Interfacial tension between electron donor solutions and nonaqueous phase TCE (pendant drop method). An excerpt:
Based on the field results presented in Example 1, laboratory studies were preformed to confirm that the enhanced bioavailability of TCE observed in the field was due to co-solvent or surfactant behavior resulting from the use of high concentrations of sodium lactate. Two fundamental properties used to screen the co-solvent or surfactant properties of a solution are surface tension and interfacial tension. Surface tension measures the force per unit length along the interface between a liquid and air due to its tension. When a co-solvent or surfactant is present in an aqueous liquid at increasing concentrations, the surface tension of that liquid decreases. Interfacial tension is similar to surface tension except that it measures the force per unit length along the interface between two liquid phases arising from the surface free energy. The higher the interfacial tension between two liquids, the less likely one is to dissolve into the other, and the more difficult it is for one to be transported within the other. Thus, perhaps the most significant property of co-solvents and surfactants in the context of chlorinated solvent remediation is that they decrease the interfacial tension between the aqueous phase (groundwater) and the organic nonaqueous phase so that the solubility (or mobility for order-of-magnitude decreases) of the nonaqueous phase is enhanced.
The laboratory study performed to confirm the co-solvent properties of the high concentration electron donor solution measured the surface tension of electron donor solutions at various concentrations. Next, interfacial tensions between the same electron donor solutions and nonaqueous phase TCE were measured. Two types of electron donor solutions were used. The first was different concentrations of sodium lactate, the electron donor used in Example 1. The second was various mixtures of sodium lactate and ethyl lactate. Ethyl lactate was chosen because it is a lactate-based compound that is used in some industries as a solvent. Thus it was believed ethyl lactate might further enhance the co-solvent behavior observed, while still acting as a suitable electron donor for bioremediation. It is believed that mixtures of sodium lactate and ethyl lactate have never before been used for bioremediation. Surface and interfacial tension measurements were made using the pendant drop method (M. J. Rosen, ed., Structure/Performance Relationships in Surfactants, American Chemical Society, Washington D.C. 329 (1984); R. D. Bagnall & P. A. Arundel, The Profile Area of Pendant Drops, 82 J. Phys. Chem. 898 (1978)) coupled with real-time video imaging (M. D. Herd et al., Interfacial Tensions of Microbial Surfactants Determined by Real-Time Video Imaging of Pendant Drops, Proceedings paper number SPE/DOE 24206 513–519, SPE/DOE Eighth Symposium on Enhanced Oil Recovery, Tulsa, Okla. (1992)).
The data points in the figure represent the mean interfacial tension measurement based on at least eight independent measurements. The error bars show one standard deviation. It can be seen that as electron donor concentration increases, interfacial tension generally decreases. While sodium lactate had dramatic effects in the field (see FIG. 7), it appears that the other electron donor solutions tested might increase bioavailability to an even greater extent. […]

Series [3] can be described thus: Emulsion formation of electron donor in water. Particulars: very little mixing, unpublished data. An excerpt: Oleyl lactyllic acid may be just such an electron donor (confidential proprietary information). It is essentially a combination of vegetable oil and lactic acid that was developed in the food processing industry a few decades ago as an emulsifier. […] Although it has an appearance and viscosity of vegetable oil, its nature as an emulsifier causes it to react very differently with water than pure vegetable oil. When vegetable oil is used in the field as electron donor, an emulsifier such as lecithin must be added to inject it into groundwater (25). The mixture is then mixed to achieve an emulsion of a few tenths of a percent to a few percent oil. The droplet size of the emulsion may be a critical factor in its transportability (26). In order to achieve small, easily transported droplets in the emulsion, intensive mixing is required. […] This observation is consistent with its intended use in food processing. […] While this may be the most promising example on the surface, other potential electron donors will be evaluated under this proposal.

For the compound `CCOC(=O)C(C)O` (stereo not drawn) [ethyl lactate], the “Effect on the solution's surface tension” value in series [1] (1% and 10% ethyl lactate added to sodium lactate solutions) is “pronounced effect”. In series [2] (10% ethyl lactate mixture with sodium lactate), the “Tension compared with 30% sodium lactate solution with no ethyl lactate” value was “lower surface tensions than the 30% sodium lactate solution”. For the same compound, the “Dependence of interfacial tension on sodium lactate concentration” value in series [2] (ethyl lactate / sodium lactate mixtures, FIG. 6) is on record as “relatively insensitive to sodium lactate concentration”.

On to `CC(O)C(=O)[O-].[Na+]` (stereo not drawn) [sodium lactate], for which the “Change in surface tension” value in series [1] (sodium lactate 0.01 to 7%) was “almost no change”; in series [1] (sodium lactate 30 and 60%), “dramatic decrease”. In addition, the “Decrease of interfacial tension between nonaqueous TCE and the electron donor solution” value in series [2] (high concentrations of sodium lactate) is at most 47%. Also, the “Interfacial tension as percent of the value at 0.1% sodium lactate” value in series [2] (sodium lactate 30%, 0% ethyl lactate, FIG. 6) is listed as 47%. Further, the “Decrease of interfacial tension” value in series [2] (sodium lactate increased from 0.1 to 3%, 0% ethyl lactate, FIG. 6) is given as “about 26%”.

Regarding oleyl lactyllic acid, the “Emulsion formed in water” value in series [3] is “forms a stable microemulsion”.
